The source of these data is patent publication US9096532B2, “Pyrazole inhibitors of COX-2 and sEH” (The Regents of the University of California, priority 2010, dated 2015).

The structures appear in SMILES notation.

For one data set, the target named is T1, ovine COX-1 (Ovis aries, UniProt P05979).
T1 construct: purchased Cayman Chemical 700100
T1 sequence (P05979 25-600): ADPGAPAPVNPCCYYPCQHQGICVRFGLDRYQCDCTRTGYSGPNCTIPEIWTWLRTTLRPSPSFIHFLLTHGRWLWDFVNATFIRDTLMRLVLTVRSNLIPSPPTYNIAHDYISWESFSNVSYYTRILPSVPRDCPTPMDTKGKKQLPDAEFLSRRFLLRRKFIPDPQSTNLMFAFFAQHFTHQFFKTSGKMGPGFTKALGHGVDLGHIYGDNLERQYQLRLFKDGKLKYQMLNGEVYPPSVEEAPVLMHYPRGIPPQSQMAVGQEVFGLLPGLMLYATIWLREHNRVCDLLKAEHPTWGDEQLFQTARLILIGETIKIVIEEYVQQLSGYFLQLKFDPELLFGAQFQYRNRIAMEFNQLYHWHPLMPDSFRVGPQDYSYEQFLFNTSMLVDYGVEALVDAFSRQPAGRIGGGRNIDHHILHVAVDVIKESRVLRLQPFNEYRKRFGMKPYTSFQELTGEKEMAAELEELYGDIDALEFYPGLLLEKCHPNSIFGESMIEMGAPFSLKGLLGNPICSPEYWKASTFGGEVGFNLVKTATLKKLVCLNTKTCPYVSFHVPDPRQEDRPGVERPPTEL
Description: Cyclooxygenase inhibition assay (COX Fluorescent Inhibitor Screening Assay Kit), COX-1. Type of data set: biochemical. As to the method:
(§1) Stock solutions of test compounds are dissolved in a minimum volume of DMSO. 10 μl of various concentrations of the test compound solutions, e.g., [I]final between 0.01 and 100 μM, are added to a series of supplied reaction buffer solutions (150 μl, 100 mM Tris-HCl, pH 8.0) with either COX-1 or COX-2 (10 μl) enzyme in the presence of Heme (10 μl) and a fluorometric substrate (10 μl). The reactions are initiated by quickly adding 10 μl of arachidonic acid solution and then incubating the system for two minutes at room temperature. […] The intensity of this fluorescence is proportional to the amount of resorufin, which is proportional to the amount of PGG2 present in the well during the incubation. Percent inhibition is calculated by comparison from the 100% initial activity sample value (no inhibitor).
as §1, with “compounds were” for “compounds are”, “μM, were” for “μM, are”, “reactions were” for “reactions are”, “then incubated” for “then incubating the system”, “inhibition was” for “inhibition is”

The nature of data set [1]: Pharmacokinetics in mice by oral cassette dosing. The class given is in vivo. The following applies: oral cassette dosing at 5 mg/kg, blood.
Description: All the animal experiments were performed according to protocols approved by the Animal Use and Care Committee of University of California, Davis. […] Each cassette was orally administered to 4 mice at a dose of 5 mg/kg in 120-150 μl of vehicle depending on animal weight. […] The instrument was equipped with a linear ion trap and a Turbo V ion source and was operated in negative ion MRM mode. […] This was maintained for 3 min, then the gradient was returned to 30% solvent B in 2 min. The flow rate was 0.4 mL/min. The injection volume was 10 μL and the samples were kept at 4° C. in the auto sampler.
Data set [2] has as its system mouse aortic ring vessel sprouting. Description: Mouse aortic ring assay. The settings on record: FIG. 13. The class given is cell-based. How it is done: Mouse aorta ring assay was carried out using a slightly modified method described by Bellacen and Lewis (J Vis Exp, e1564). The 48-well plates were coated with 50 μL per well growth-factor reduced Matrigel at 37° C. for 30 min. The aorta of C57BL/6 mice was harvested, washed with cold serum-free F-12K medium 5-6 times, and cut to ˜1 mm length pieces. The aorta ring was put in the center area of Matrigel-coated 48-well plates, then another 100 μL Matrigel was added into each well and incubated at 37° C. for another 30 min. Complete endothelial EGM-2 culture medium (500 μL per well) with or without test compounds was added into each well, incubated in 37° C. incubators for 6-12 days, microscope image was recorded and analyzed by NIH Image J software.

For data set [3], the system named is VEGF-induced angiogenesis. Description: In vivo angiogenesis assay (Matrigel plug). The following applies: C57BL/6 mice, n=6 per group, FIG. 15. How it is done: Male C57BL/6 mice were purchased from Charles River Lab. After acclimation for 1 wk in a standard animal facility, the animals were lightly anesthesized using 1-4% isoflurane in oxygen (2 L/min) and placed on a heated stage to maintain body temperature at 37° C. Growth-factor reduced Matrigel (0.5 mL, BD Biosciences, San Jose, Calif.) mixed with 100 ng mouse VEGF 164 (R&D Systems, Minneapolis, Minn.), 20 U heparin (APP Pharmaceuticals, Schaumburg, Ill.), with or without test compounds were subcutaneously injected into the mice at the abdominal area. Each mouse was injected with two gels (with/without test compounds) symmetrically in the abdomen. After 4-7 days, the animals were euthanized and dissected to recover the implanted Matrigel plugs. Hemoglobin contents inside the Matrigel implants were analyzed by Drabkin's reagent (Sigma-Aldrich, St. Louis, Mont.).

Another data set has as its system Met-1 breast cancer. In words: In vivo Met-1 tumor growth. The settings on record: FVB mice, 0.1 mg/kg/day by mini-pump, FIG. 16. The source says: Cells derived from highly metastatic breast cancer Met-1 will be transplanted into the fat pads of FVB female mice. […] Over this period, animals will be checked 3 times per week with ultrasound to mark changes in tumor growth and size. Ultrasound contrast agent microbubbles will also be administered during each ultrasound session by IV injection to track changes in tumor vasculature (Invest Radiol 46, 215-224).

For data set [4], the system named is MMP activity in HUVEC cells. Description: Matrix metalloproteinase (MMP) assay by zymography, HUVEC cells. The class given is cell-based, human. The settings on record: FIG. 17 right. How it is done: MMP activity in PC-3 and HUVEC cells were carried out by zymography (J Vis Exp, e2445). […] After that, the gels were incubated at renaturing buffer for 30 min, followed with incubation at zymography developing buffer for 30 min at room temperature, and replaced with fresh developing buffer and incubated at 37° C. overnight. The gels were stained by Coomassie blue, and images were recorded and analyzed by NIH Image J software.

As usually defined, the IC50 is the point on the concentration scale where inhibition reaches its midpoint. For orientation: inhibition means the percentage by which the read-out fell short of the control. As usually defined, the AUC is the area under the concentration-time curve, a measure of exposure. A low value points to less exposure. One may read the Cmax as the maximum level reached in the sampled fluid or tissue. What is called Tmax is the time from dosing to the highest level. On ovine COX-1, `NS(=O)(=O)c1ccc(-n2nc(CCCNC(=O)Nc3ccc(C(F)(F)F)cc3)cc2-c2ccccc2)cc1` [Compound 21i, 4-(5-Phenyl-3-{3-[3-(4-trifluoromethyl-phenyl)-ureido]-propyl}-pyrazol-1-yl)-benzenesulfonamide] returned a half-maximal inhibitory concentration (IC50) of over 100 µM. Also, the inhibition at 100 µM on ovine COX-1 (read-out: COX-1 (% inhibition)) worked out at 22.7%. In data set [1], the AUC is 0.98 µM·h, the Cmax was 260 nM, the Tmax came to 0.8 h and the t1/2 was determined as 2.6 h. Further, the “Vessel sprouting in mouse aortic ring assay, in words” value in data set [2] was “inhibited vessel sprouting in mouse aortic ring assay in a dose-dependent manner”. Besides, the “VEGF-induced angiogenesis, hemoglobin content inside the Matrigel, in words” value in data set [3] is given as “inhibits VEGF-induced angiogenesis”. The “Primary tumor growth of Met-1 breast cancer, in words” value in the data set on Met-1 breast cancer is listed as “inhibits primary tumor growth”. In addition, in data set [4], the “MMP activity, in words” value was “no effect on MMP activity”.
